Measured values: article PMC7160832, “Phosphonium Ionic Liquid-Infused Poly(vinyl chloride) Surfaces Possessing Potent Antifouling Properties” (ACS Omega, 2020)

Columns and labels:
S. aureus (ATCC 6538) = experiment: MIC and MBC by standardized broth dilution; type: cell-based, Staphylococcus aureus; conditions: for MBC: 99.9% killing; for MBC / MIC: >1000 = beyond tested concentration range; for MIC: 24 h, MHB
Protocol: (§1) S. aureus (ATCC 6538) and P. aeruginosa (PA01) were maintained on cryopreservative beads (Microbank) at −80 °C and cultivated in 100 mL of MHB at 37 °C when needed. Overnight broth was centrifuged (3000 rpm, 12 min) and resuspended in PBS to achieve a final inoculum density of approximately 1 × 10^8 cfu mL^–1.
(§2) The microbiological performance of the ionic liquids was assessed using MHB inoculated with S. aureus or P. aeruginosa according to a standardized broth dilution method.[25] A stock solution of 0.2% w/v of ionic liquid was freshly prepared in sterile MHB by stirring at 37 °C until dissolved and then filtered using a sterile 0.22 μm membrane. Serial twofold dilutions were prepared to provide a concentration range of […] to 0.1% w/v. Inoculum was diluted in MHB to produce a final inoculum density of 1 × 10^6 cfu mL^–1, verified by viable count. The inoculum (100 μL) was added to an equal volume of ionic liquid and incubated for 24 h (37 °C, 100 rpm). Positive (100 μL ofMHB/100 μL of inoculum) and negative controls (200 μL of MHB) were included in each assay. A minimum of five replicates of each dilution and controls were included.
(§3) Determination of the MIC was taken as the lowest concentration that produced no visible growth after 24 h incubation.

P. aeruginosa (PA01) = experiment: MIC and MBC by standardized broth dilution; type: cell-based, Pseudomonas aeruginosa; conditions: for MBC: 99.9% killing; for MBC / MIC: >1000 = beyond tested concentration range; for MIC: 24 h, MHB
Protocol: as §1, §2, §3

equine erythrocytes = experiment: Hemolysis assay of PILs; type: cell-based; conditions: for hemolysis: 1 h, 37 °C; for hemolytic activity (in words): concentrations up to 25 μg mL^–1, equine erythrocytes
Protocol: To assess the potential of phosphonium-AOT ionic liquids to illicit a hemolytic effect, ionic liquids were assessed for the ability to induce hemolysis of equine erythrocytes according to a previous method.[51] Briefly, 10 mL of fresh defribrinated equine blood was rinsed three times with an equal volume of PBS by centrifugation at 900g for 15 min. Erythrocytes were resuspended in PBS to a concentration of 4% (v/v). Erythrocyte suspension (100 μL) was added to each well of a 96-well microtiter plate and exposed to varying concentrations of ionic liquid for 1 h at 37 °C in an orbital incubator. Exposed solutions were subsequently centrifuged at 1000g for 15 min, and 100 μL was transferred to a fresh 96-well microtiter plate and spectrophotometrically read at 414 nm to determine hemoglobin release. Hexadecyltrimethylammonium bromide (8 mM) was used as a positive control (100% hemolysis) and PBS as a negative control (0% hemolysis). Samples were run in quadruplicate, and percentage hemolysis was calculated as follows [drawing 1]

[1] = parameters: method as in PMID 29518336; conditions: cited from earlier work
[2] = parameters: method as in earlier work; conditions: ref 39 (Kruszewska et al.); cited from earlier work
P. aeruginosa = test system: P. aeruginosa; parameters: method as in PMID 17655912; conditions: 10^6 cfu mL^–1 P. aeruginosa inoculum, within 6 h, concentrations as low as 0.08 mg/L; cited from earlier work
[3] = 5 μg mL^–1, equine erythrocytes
[4] = 25 μg mL^–1, equine erythrocytes

| Molecule | MBC (S. aureus (ATCC 6538)) [μg mL^–1] | MIC (S. aureus (ATCC 6538)) [μg mL^–1] | MBC (P. aeruginosa (PA01); P. aeruginosa) [μg mL^–1] | MIC (P. aeruginosa (PA01); P. aeruginosa) [μg mL^–1] | further results |
| --- | --- | --- | --- | --- | --- |
| CCCCC(CC)COC(=O)CC(C(=O)OCC(CC)CCCC)S(=O)(=O)[O-].CCCC[P+](CCO)(CCCC)CCCC (stereo not shown) [[P444 2OH][AOT], tributyl(hydroxyethyl)phosphonium docusate] | 250 | 62.5 | >1000 | >1000 | hemolysis (equine erythrocytes; [3]): < 10%; hemolysis (equine erythrocytes; [4]): 99.39% |
| CCCCC(CC)COC(=O)CC(C(=O)OCC(CC)CCCC)S(=O)(=O)[O-].CCCCCCCCCCCCCC[P+](CCCCCC)(CCCCCC)CCCCCC [[P666 14][AOT], Trihexyl(tetradecyl)phosphonium docusate] | 1000 | 500 | >1000 | >1000 | hemolytic activity (in words) (equine erythrocytes): not hemolytic |
| CCCCCCCCCCCCCC[P+](CCCCCC)(CCCCCC)CCCCCC.O=S(=O)([N-]S(=O)(=O)C(F)(F)F)C(F)(F)F [[P666 14][Tf2N], Trihexyl(tetradecyl)phosphonium bis(trifluoromethylsulfonyl)imide] | >1000 | >1000 | >1000 | >1000 | antibacterial activity / growth inhibition (in words) (S. aureus (ATCC 6538); within the tested concentration range): no antibacterial activity; antibacterial activity / growth inhibition (in words) (P. aeruginosa (PA01); P. aeruginosa, within the tested concentration range): no antimicrobial activity; aqueous solubility [1]: 260 µM |
| CCCCC(CC)COC(=O)CC(C(=O)OCC(CC)CCCC)S(=O)(=O)[O-].CCCCCCCCCCCCCC[P+](CCCCCCCC)(CCCCCCCC)CCCCCCCC [[P888 14][AOT], trioctyl(tetradecyl)phosphonium docusate] | 7.81 | 3.91 | 1000 | 250 | MIC potency relative to the other [AOT]-containing ionic liquids (S. aureus (ATCC 6538)): 16–128 fold; rise of MBC against P. aeruginosa relative to S. aureus (P. aeruginosa (PA01)): 128 fold; rise of MIC against P. aeruginosa relative to S. aureus (P. aeruginosa (PA01)): 64 fold; hemolysis (equine erythrocytes; [3]): < 10%; hemolysis (equine erythrocytes; [4]): 102.3% |
| CCCCC(CC)COC(=O)CC(C(=O)OCC(CC)CCCC)S(=O)(=O)[O-].CCCCCCCCCCCCCCCCCC[P+](C)(CCCCCCCCCCCCCCCCCC)CCCCCCCCCCCCCCCCCC [[P181818 1][AOT], trioctadecyl(methyl)phosphonium docusate] | 500 | 250 | >1000 | >1000 | hemolytic activity (in words) (equine erythrocytes): not hemolytic |
| CCCCC(CC)COC(=O)CC(C(=O)OCC(CC)CCCC)S(=O)(=O)O (stereo not shown) [sodium docusate] | – | – | – | – | MIC [2]: 3000 μg mL^–1 |
| Silver ions | – | – | – | – | eradication of inoculum (P. aeruginosa): ≤ 99.999% |
